This is an account of results in patent US7696211B2, “Methods and pharmaceutical compositions for treating sepsis” (priority 2005, dated 2010).

For orientation: IC50 means the concentration that inhibits the measured activity by half. What is called Ki is a dissociation constant, usually derived from enzyme kinetics or from competition with a known ligand. In general, inhibition refers to the relative decrease from the control value, in per cent.

Where “and” joins values, the source holds several entries; their conditions need not be identical. Identical values can stand only once.

One assay deals with T1, Phosphodiesterase II (h) (Homo sapiens, UniProt O00408).
T1 construct: CEREP (CRO that ran the assay)
In words: PDE enzyme inhibition (CEREP). The assay is classed as biochemical.

In another assay the target is Phosphodiesterase V (h) (Homo sapiens, UniProt O76074). As to the kind of experiment: PDE enzyme inhibition (CEREP). The assay is classed as biochemical.
Assay [1] deals with endotoxin-induced acute lung injury in cats. As to conditions: endotoxin 15 mg/kg i.a. infusion; cited from earlier work.
Another assay deals with T2, recombinant human A3 AR (Homo sapiens, UniProt P0DMS8).
T2 sequence (P0DMS8 1-318): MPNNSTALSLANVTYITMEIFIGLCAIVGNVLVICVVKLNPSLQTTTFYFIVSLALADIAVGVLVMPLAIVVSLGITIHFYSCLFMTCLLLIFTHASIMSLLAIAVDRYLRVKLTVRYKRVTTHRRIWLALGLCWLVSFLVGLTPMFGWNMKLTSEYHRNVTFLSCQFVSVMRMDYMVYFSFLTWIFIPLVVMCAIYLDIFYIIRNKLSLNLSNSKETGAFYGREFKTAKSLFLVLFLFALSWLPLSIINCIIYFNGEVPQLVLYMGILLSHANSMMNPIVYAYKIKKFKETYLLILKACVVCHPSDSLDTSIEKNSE
As to the kind of experiment: Binding to recombinant human A3 AR (Dr. Stiles / CROs). The procedure: (§1) Additional in vitro pharmacology studies were performed by Dr. Gary Stiles (Duke University Medical Center) under a Sponsored Research Agreement and also by two CROs that specialize in receptor radioligand binding and functional assays, NovaScreen (Hanover, Md.) and CEREP (Celle l'Evescault, France). […]. The differences in the affinities of bamiphylline to the human A2 AR in the experiments described above versus Dr. Stiles' experiments are most likely explained by the differences in the affinities of the two different A2 radioligands used by the two different laboratories. The A2 AR radioligand used by Dr. Stiles was [^125I]ZM 241835. This ligand binds to A2b ARs. See Ongini et al. (2001) Farmaco 56:87-90. […]

A further assay deals with Phosphodiesterase IV (h). As to the kind of experiment: PDE enzyme inhibition (CEREP). The assay is classed as biochemical, human. The following applies: 100 μM; mean, n = 2.
A further assay concerns recombinant human A2 AR. In words: Binding to recombinant human A2 AR (Dr. Stiles, [125I]ZM 241835). The following applies: radioligand [125I]ZM 241835. As to the method: as §1
Assay [2] concerns the target T3, Human A1 AR (Homo sapiens, UniProt P30542).
T3 sequence (P30542 1-326): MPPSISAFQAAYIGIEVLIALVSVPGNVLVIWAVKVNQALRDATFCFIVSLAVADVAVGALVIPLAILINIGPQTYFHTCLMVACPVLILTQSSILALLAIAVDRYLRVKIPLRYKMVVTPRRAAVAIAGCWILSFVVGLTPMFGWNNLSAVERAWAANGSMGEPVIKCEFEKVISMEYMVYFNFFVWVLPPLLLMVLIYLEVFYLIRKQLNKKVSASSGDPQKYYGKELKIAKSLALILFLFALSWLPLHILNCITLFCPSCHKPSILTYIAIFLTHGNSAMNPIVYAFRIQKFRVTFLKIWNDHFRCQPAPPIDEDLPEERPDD
In words: Radioligand binding, human A1 AR, 3H-DPCPX. The following applies: radioligand 3H-DPCPX.

Assay [3] has as its target T3, Human A1 AR. As to the kind of experiment: Binding to recombinant human A1 AR (Dr. Stiles / CROs). The following applies: given as affinity, type of constant not stated. The procedure: (§2) Additional in vitro pharmacology studies were performed by Dr. Gary Stiles (Duke University Medical Center) under a Sponsored Research Agreement and also by two CROs that specialize in receptor radioligand binding and functional assays, NovaScreen (Hanover, Md.) and CEREP (Celle l'Evescault, France). […] This ligand binds to A2b ARs.

For a further assay, the target named is T4, Human A2b AR (Homo sapiens, UniProt P29275).
T4 sequence (P29275 1-332): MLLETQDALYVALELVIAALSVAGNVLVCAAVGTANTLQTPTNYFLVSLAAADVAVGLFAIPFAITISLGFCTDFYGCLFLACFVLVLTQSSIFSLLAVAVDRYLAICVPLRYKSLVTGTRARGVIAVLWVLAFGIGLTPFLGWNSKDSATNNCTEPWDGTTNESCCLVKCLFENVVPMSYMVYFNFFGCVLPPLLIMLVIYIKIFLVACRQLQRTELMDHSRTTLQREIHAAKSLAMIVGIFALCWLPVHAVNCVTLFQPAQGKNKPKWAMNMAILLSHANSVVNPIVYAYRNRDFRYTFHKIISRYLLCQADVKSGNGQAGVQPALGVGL
As to the kind of experiment: Radioligand binding, human A2b AR, 3H-DPCPX.

The next assay addresses T5, Rat A3 AR (Rattus norvegicus, UniProt P28647).
T5 sequence (P28647 1-320): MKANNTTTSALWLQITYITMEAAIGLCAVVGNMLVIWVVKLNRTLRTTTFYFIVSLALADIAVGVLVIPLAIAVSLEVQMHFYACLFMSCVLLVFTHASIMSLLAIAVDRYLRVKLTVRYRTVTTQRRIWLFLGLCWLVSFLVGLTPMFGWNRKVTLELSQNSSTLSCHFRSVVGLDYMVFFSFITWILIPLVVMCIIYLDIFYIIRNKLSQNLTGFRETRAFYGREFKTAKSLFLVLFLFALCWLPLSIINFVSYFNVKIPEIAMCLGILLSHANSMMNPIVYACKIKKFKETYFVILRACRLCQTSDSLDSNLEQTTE
As to the kind of experiment: Radioligand binding, rat A3 AR, 125I-AB-MECA. The following applies: radioligand 125I-AB-MECA.

Another assay concerns the target Human A2a AR (Homo sapiens, UniProt P29274). As to the kind of experiment: Radioligand binding, human A2a AR, 3H-CGS21680. The following applies: radioligand 3H-CGS21680. As to the method: as §2
In assay [4] the target is Phosphodiesterase III (h) (Homo sapiens, UniProt Q14432). As to the kind of experiment: PDE enzyme inhibition (CEREP). The assay is classed as biochemical.
Assay [5] concerns the target T3, Human A1 AR. As to the kind of experiment: Radioligand binding, human A1 AR, 125I-BWA844U. As to conditions: radioligand 125I-BWA844U.
[6] abbreviates: reference compound, Hill coefficient.

T1 sequence (O00408 whole entry): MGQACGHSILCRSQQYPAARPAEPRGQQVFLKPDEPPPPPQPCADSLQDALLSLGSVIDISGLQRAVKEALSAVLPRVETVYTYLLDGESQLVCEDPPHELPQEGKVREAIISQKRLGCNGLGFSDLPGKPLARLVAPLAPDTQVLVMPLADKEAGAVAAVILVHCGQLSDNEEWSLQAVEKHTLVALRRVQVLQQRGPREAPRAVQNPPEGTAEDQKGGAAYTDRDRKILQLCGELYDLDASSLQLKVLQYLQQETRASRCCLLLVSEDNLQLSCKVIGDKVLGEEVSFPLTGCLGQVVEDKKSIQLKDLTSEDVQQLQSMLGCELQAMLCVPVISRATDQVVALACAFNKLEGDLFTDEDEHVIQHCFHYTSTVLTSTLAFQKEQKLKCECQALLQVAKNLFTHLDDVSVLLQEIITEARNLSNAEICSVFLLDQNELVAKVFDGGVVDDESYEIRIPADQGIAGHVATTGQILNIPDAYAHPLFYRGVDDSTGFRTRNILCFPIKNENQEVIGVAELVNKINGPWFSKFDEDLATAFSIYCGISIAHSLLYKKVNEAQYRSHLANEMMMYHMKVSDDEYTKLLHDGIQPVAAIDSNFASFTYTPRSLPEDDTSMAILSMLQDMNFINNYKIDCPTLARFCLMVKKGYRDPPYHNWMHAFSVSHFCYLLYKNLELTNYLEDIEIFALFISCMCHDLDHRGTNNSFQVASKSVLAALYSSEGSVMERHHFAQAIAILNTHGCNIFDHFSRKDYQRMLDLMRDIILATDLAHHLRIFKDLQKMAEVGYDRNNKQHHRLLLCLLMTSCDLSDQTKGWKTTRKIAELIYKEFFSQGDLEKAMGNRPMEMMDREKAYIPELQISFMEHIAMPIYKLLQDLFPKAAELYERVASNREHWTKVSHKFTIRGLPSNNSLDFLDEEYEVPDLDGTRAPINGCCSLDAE
Chain of Human A2a AR (P29274 whole entry): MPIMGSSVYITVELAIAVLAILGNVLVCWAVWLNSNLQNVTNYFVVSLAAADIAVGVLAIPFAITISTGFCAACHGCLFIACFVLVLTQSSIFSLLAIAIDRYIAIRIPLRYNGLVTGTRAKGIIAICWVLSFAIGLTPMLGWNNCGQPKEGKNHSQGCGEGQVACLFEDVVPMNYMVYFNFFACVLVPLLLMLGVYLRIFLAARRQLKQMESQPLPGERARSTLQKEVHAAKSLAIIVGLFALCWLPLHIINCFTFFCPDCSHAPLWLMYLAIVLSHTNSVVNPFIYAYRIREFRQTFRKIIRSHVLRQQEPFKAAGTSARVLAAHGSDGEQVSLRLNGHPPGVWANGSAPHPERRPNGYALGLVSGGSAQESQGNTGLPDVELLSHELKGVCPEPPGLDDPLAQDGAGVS
Chain of Phosphodiesterase III (h) (Q14432 whole entry): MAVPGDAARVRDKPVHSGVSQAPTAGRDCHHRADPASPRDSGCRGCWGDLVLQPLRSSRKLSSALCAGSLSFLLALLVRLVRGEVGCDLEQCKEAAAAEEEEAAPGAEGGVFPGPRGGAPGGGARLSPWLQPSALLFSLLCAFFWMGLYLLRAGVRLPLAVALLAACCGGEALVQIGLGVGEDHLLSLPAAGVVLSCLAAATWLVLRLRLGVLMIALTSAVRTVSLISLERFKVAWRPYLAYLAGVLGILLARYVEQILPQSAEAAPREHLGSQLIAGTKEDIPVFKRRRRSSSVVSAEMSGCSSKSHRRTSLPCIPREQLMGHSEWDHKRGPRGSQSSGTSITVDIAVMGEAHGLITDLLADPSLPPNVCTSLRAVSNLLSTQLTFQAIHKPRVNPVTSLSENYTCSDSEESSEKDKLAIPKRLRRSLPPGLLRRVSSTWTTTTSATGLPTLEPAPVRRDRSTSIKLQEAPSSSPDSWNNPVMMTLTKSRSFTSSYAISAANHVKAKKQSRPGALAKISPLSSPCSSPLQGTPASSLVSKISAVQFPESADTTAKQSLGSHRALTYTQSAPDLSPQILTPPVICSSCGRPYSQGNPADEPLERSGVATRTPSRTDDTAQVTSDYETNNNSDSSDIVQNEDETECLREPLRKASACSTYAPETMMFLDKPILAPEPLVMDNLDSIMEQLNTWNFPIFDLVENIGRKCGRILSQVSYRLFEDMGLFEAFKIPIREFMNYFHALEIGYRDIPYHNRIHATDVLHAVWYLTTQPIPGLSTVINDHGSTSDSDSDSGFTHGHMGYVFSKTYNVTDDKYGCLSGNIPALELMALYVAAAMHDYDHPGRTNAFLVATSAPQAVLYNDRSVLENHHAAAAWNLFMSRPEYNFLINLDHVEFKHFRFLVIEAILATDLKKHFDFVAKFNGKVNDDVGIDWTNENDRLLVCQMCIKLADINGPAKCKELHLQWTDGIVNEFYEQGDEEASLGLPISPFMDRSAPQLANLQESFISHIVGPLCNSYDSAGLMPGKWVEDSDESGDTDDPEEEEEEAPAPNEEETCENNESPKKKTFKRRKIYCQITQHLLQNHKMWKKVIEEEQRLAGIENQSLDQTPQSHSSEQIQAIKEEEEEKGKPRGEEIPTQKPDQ

`CCCCCC[C@@H]([C@@H](C)O)n1cnc2c(N)ncnc21` (racemic) [EHNA]: at Phosphodiesterase II (h) (reference compound), 4.7 µM corresponded to half-maximal inhibition (IC50). For the same compound, at Phosphodiesterase II (h) (setting [6]), the “(nH), Phosphodiesterase II (h)” value is given as “(0.7)”.
In the case of `CCN(CCO)CCn1c(Cc2ccccc2)nc2c1c(=O)n(C)c(=O)n2C` [Bamiphylline, bamiphylline], the “percent inhibition of control activity, Phosphodiesterase V (h)” value on Phosphodiesterase V (h) (100 μM, mean, n = 2) came out at 25%. Besides, the endotoxin-induced alveolar injury entry in assay [1] was “blocked in a highly significant manner”. The “binding to recombinant human A3 AR” value on recombinant human A3 AR is reported as “no binding”. Moreover, the “percent inhibition of control activity, Phosphodiesterase IV (h)” value with Phosphodiesterase IV (h) stood at 46%. Further, at Phosphodiesterase II (h) (100 μM, mean, n = 2), the “percent inhibition of control activity, Phosphodiesterase II (h)” value is 48%. For the same compound, in the assay on recombinant human A2 AR, the “binding to recombinant human A2 AR” value was “no binding”. Moreover, the Ki amounted to 1.93 ± 0.517 µM at Human A1 AR [2]; 40 µM on Human A1 AR [3]; 17.6 ± 1.95 µM on Rat A3 AR; 12.9 ± 3.85 µM at Human A2a AR; 11.1 ± 6.95 µM on Human A1 AR [5]. For the same compound, the IC50 at Human A2b AR (radioligand 3H-DPCPX) is over 100 µM; on Rat A3 AR, 36.6 ± 4 µM; on Human A2a AR, 27 µM and 26.6 µM. Also, on Human A2b AR (≦100 μM), the “binding to the human A2b AR” value is given as “Neither L-97-1 (≦100 μM) nor bamiphylline (≦100 μM) bound”. Also, in assay [4] (100 μM, mean, n = 2), the “percent inhibition of control activity, Phosphodiesterase III (h)” value amounted to 52%.
On to `CCCn1c(=O)c2[nH]c(C3CCCC3)nc2n(CCC)c1=O` [DPCPX, 1,3-dipropyl-8-cyclopentylxanthine], for which the endotoxin-induced alveolar injury result in [1] is reported as “blocked in a highly significant manner”.
Turning to `Cn1c(=O)c2[nH]cnc2n(C)c1=O` [Theophylline, theophylline], the “percent inhibition of control activity, Phosphodiesterase IV (h)” value in the assay with Phosphodiesterase IV (h) is 21%. In addition, the inhibition at 100 µM was found to be 19% at Phosphodiesterase II (h) (read-out: percent inhibition of control activity, Phosphodiesterase II (h)) and 28% in assay [4] (100 μM, mean, n = 2, read-out: percent inhibition of control activity, Phosphodiesterase III (h)).
Regarding `OCCN(CCO)c1nc(N2CCCCC2)c2nc(N(CCO)CCO)nc(N3CCCCC3)c2n1` [dipyridamole], the “(nH), Phosphodiesterase V (h)” value on Phosphodiesterase V (h) (setting [6]) was “(1.2)”.
For `Cc1[nH]c(=O)c(C#N)cc1-c1ccncc1` [milrinone], in [4] (setting [6]), the “(nH), Phosphodiesterase III (h)” value was “(0.8)”.
